In this test the test system is HeLa S3 cells. Put plainly: HeLa S3 Cell Growth Inhibition Test. It counts as cell-based. How it is done: In each well of a 96-well microtiter plate was placed 0.1 mL of HeLa S3 cells having a concentration of 8×10^3 cells/mL and prepared in an MEM culture medium containing 10% fetal bovine serum and 2 mM glutamine. After the cells were incubated overnight at 37° C. in a carbon dioxide incubator, a test compound suitably diluted with a medium was added to the wells in an amount of 0.05 mL for each well. The cells were incubated at 37° C. for 72 hours in a carbon dioxide incubator. After the culture supernatant was removed, 0.1 mL of a culture medium containing 0.02% Neutral Red was added to each well. The cells were then incubated at 37° C. for 1 hour in a carbon dioxide incubator to dye the cells. After the culture supernatant was removed, each residue was rinsed once with physiological saline and the pigment was extracted with 0.001 N hydrochloric acid/30% ethanol. The absorbance at 550 nm of each extract was measured with a microplate reader. The drug concentration required for the 50% inhibition of cell growth, which is referred to as IC50, was calculated by comparing the absorbance for untreated cells with those for cells treated with the drug in known concentrations.

Where [1] appears, read: HeLa S3, 72 hours incubation, Neutral Red, read-out: IC50, HeLa S3 cell growth inhibition.
The mark [2] stands for this setting: read-out: IC50, HeLa S3 cell growth inhibition, HeLa S3, 72 hours incubation, Neutral Red.
The mark [3] stands for this setting: Homo sapiens, HeLa S3, 72 h, HeLa S3, 72 hours incubation, Neutral Red, read-out: IC50, HeLa S3 cell growth inhibition.
Setting [4] is: Homo sapiens, HeLa S3, 72 h, read-out: IC50, HeLa S3 cell growth inhibition, HeLa S3, 72 hours incubation, Neutral Red.

Here are results for 31 compounds from patent US5981558A, “DC107 derivatives” (Kyowa Hakko Kogyo Co., Ltd., priority 1996, dated 1999).

pIC50: −log10 of the molar value. Where two headings read alike, the source gives them in different places.

Usually pIC50 stands for the negative decadic logarithm of the IC50, by convention in mol/L.

For the compound `COC(=O)NCC(=O)OCSC(=O)C(C)(O)C12CC/C(C)=C/C(OC3CCCCO3)C(=O)/C=C/C=C\c3csc(n3)C(C)N(C(=O)C1)[S+]2[O-]` (single isomer, unassigned) [Compound 42], the pIC50 under setting [1] is 7.33.

Take `C/C1=C\C(OC2CCCCO2)C(=O)/C=C/C=C\c2csc(n2)C(C)N2C(=O)CC(C(C)(O)C(=O)SCOC(=O)CNC(=O)[C@@]34O[C@@H](CO)[C@@H](O)[C@@H]3OC(C)(C)O4)(CC1)[S+]2[O-]` (single isomer, unassigned) [Compound 62]: the pIC50 under setting [2] is 7.15.

`C/C1=C\C(OC2CCCCO2)C(=O)/C=C/C=C\c2csc(n2)C(C)N2C(=O)CC(C(C)(O)C(=O)SCOC(=O)CNC(=O)[C@@]34O[C@@H](CO)[C@@H](O)[C@@H]3OC(C)(C)O4)(CC1)[S+]2[O-]` (single isomer, unassigned) [Compound 63]: the pIC50 under setting [2] was 6.57.

Consider `COC(=O)[C@H](CCC(=O)OCSC(=O)C(C)(O)C12CC/C(C)=C/C(OC3CCCCO3)C(=O)/C=C/C=C\c3csc(n3)C(C)N(C(=O)C1)[S+]2[O-])NC(=O)[C@@]12O[C@@H](CO)[C@@H](O)[C@@H]1OC(C)(C)O2` (single isomer, unassigned) [Compound 65], for which the pIC50 under setting [1] was 8.51.

For `COC(=O)[C@H](CCC(=O)OCSC(=O)C(C)(O)C12CC/C(C)=C/C(OC3CCCCO3)C(=O)/C=C/C=C\c3csc(n3)C(C)N(C(=O)C1)[S+]2[O-])NC(=O)[C@@]12O[C@@H](CO)[C@@H](O)[C@@H]1OC(C)(C)O2` (single isomer, unassigned) [Compound 66], under setting [1], the negative logarithm of the IC50 (pIC50) is 7.32.

As for `COC(=O)CCC(=O)OCSC(=O)C(C)(O)C12CCC(C)=CC(O)C(=O)C=CC=Cc3csc(n3)C(C)N(C(=O)C1)[S+]2[O-]` (stereo not shown) [Compound 1], the negative logarithm of the IC50 (pIC50) under setting [3] is 8.15.

Regarding `COC(=O)CCCCC(=O)OCSC(=O)C(C)(O)C12CCC(C)=CC(O)C(=O)C=CC=Cc3csc(n3)C(C)N(C(=O)C1)[S+]2[O-]` (stereo not shown) [Compound 2], the negative-log IC50 (pIC50) under setting [4] is 8.12.

For `CC1=CC(O)C(=O)C=CC=Cc2csc(n2)C(C)N2C(=O)CC(C(C)(O)C(=O)SCOC(=O)C(C)(C)NC(=O)OC(C)(C)C)(CC1)[S+]2[O-]` (stereo not shown) [Compound 5], under setting [4], the pIC50 was 7.26.

As for `CC1=CC(O)C(=O)C=CC=Cc2csc(n2)C(C)N2C(=O)CC(C(C)(O)C(=O)SCOC(=O)c3ccccc3)(CC1)[S+]2[O-]` (stereo not shown) [Compound 6], the pIC50 under setting [4] was 7.74.

Regarding `CC1=CC(O)C(=O)C=CC=Cc2csc(n2)C(C)N2C(=O)CC(C(C)(O)C(=O)SCOC(=O)c3ccc(C(=O)O)cc3)(CC1)[S+]2[O-]` (stereo not shown) [Compound 9], where the note is “Homo sapiens, HeLa S3, 72 h, footnote *: Value after 72 hours of drug treatment, read-out: IC50, HeLa S3 cell growth inhibition”, the negative logarithm of the IC50 (pIC50) was 6.82.

In the case of `COc1ccc(COCC(=O)OCSC(=O)C(C)(O)C23CCC(C)=CC(O)C(=O)C=CC=Cc4csc(n4)C(C)N(C(=O)C2)[S+]3[O-])cc1` (stereo not shown) [Compound 13], under setting [3], the negative logarithm of the IC50 (pIC50) was 7.96.

With `CC1=CC(O)C(=O)C=CC=Cc2csc(n2)C(C)N2C(=O)CC(C(C)(O)C(=O)SCOC(=O)CNC(=O)[C@@]34O[C@H]5COC(C)(C)O[C@H]5[C@@H]3OC(C)(C)O4)(CC1)[S+]2[O-]` (stereo partly shown) [Compound 19], under setting [3], the pIC50 is 7.24.

As for `CC1=CC(O)C(=O)C=CC=Cc2csc(n2)C(C)N2C(=O)CC(C(C)(O)C(=O)SCOC(=O)CCNC(=O)[C@@]34O[C@H]5COC(C)(C)O[C@H]5[C@@H]3OC(C)(C)O4)(CC1)[S+]2[O-]` (stereo partly shown) [Compound 20], the pIC50 under setting [3] was 6.96.

As to `CC1=CC(O)C(=O)C=CC=Cc2csc(n2)C(C)N2C(=O)CC(C(C)(O)C(=O)SCOC(=O)CCNC(=O)[C@H]3O[C@@H]4OC(C)(C)O[C@@H]4[C@H]4OC(C)(C)O[C@H]43)(CC1)[S+]2[O-]` (stereo partly shown) [Compound 21], the pIC50 under setting [4] was 6.42.

`COC(=O)N[C@@H](CCC(=O)OCSC(=O)C(C)(O)C12CCC(C)=CC(O)C(=O)C=CC=Cc3csc(n3)C(C)N(C(=O)C1)[S+]2[O-])C(=O)OC` (stereo partly shown) [Compound 23]: the negative logarithm of the IC50 (pIC50) under setting [4] is 7.24.

Take `COC(=O)[C@H](CCC(=O)OCSC(=O)C(C)(O)C12CCC(C)=CC(O)C(=O)C=CC=Cc3csc(n3)C(C)N(C(=O)C1)[S+]2[O-])NC(=O)c1ccc(OC(C)=O)cc1` (stereo partly shown) [Compound 26]: the pIC50 under setting [3] is 7.17.

Regarding `CC1=CC(O)C(=O)C=CC=Cc2csc(n2)C(C)N2C(=O)CC(C(C)(O)C(=O)SCOC(=O)CCCN3C(=O)C=CC3=O)(CC1)[S+]2[O-]` (stereo not shown) [Compound 28], under setting [4], the pIC50 was 6.12.

Turning to `CC(=O)Oc1ccc(C(=O)OCSC(=O)C(C)(O)C23CCC(C)=CC(O)C(=O)C=CC=Cc4csc(n4)C(C)N(C(=O)C2)[S+]3[O-])cc1` (stereo not shown) [Compound 30], the negative-log IC50 (pIC50) under setting [3] is 7.82.

Turning to `CC(=O)Oc1cccc(C(=O)OCSC(=O)C(C)(O)C23CCC(C)=CC(O)C(=O)C=CC=Cc4csc(n4)C(C)N(C(=O)C2)[S+]3[O-])c1` (stereo not shown) [Compound 31], the negative logarithm of the IC50 (pIC50) under setting [4] was 8.21.

On to `CC(=O)Oc1ccc(CCC(=O)OCSC(=O)C(C)(O)C23CCC(C)=CC(O)C(=O)C=CC=Cc4csc(n4)C(C)N(C(=O)C2)[S+]3[O-])cc1` (stereo not shown) [Compound 32], for which the negative-log IC50 (pIC50) under setting [3] is 8.89.

For `CC(=O)Oc1ccc(CCCC(=O)OCSC(=O)C(C)(O)C23CCC(C)=CC(O)C(=O)C=CC=Cc4csc(n4)C(C)N(C(=O)C2)[S+]3[O-])cc1` (stereo not shown) [Compound 33], the pIC50 under setting [3] is 7.96.

In the case of `COC(=O)Nc1cccc(C(=O)OCSC(=O)C(C)(O)C23CCC(C)=CC(O)C(=O)C=CC=Cc4csc(n4)C(C)N(C(=O)C2)[S+]3[O-])c1` (stereo not shown) [Compound 34], the pIC50 under setting [3] is 7.26.

For the compound `COCCOCCOCC(=O)OCOC1/C=C(\C)CCC2(C(C)(O)C(=O)SCOC(=O)COCCOCCOC)CC(=O)N(C(C)c3nc(cs3)/C=C\C=C\C1=O)[S+]2[O-]` (stereo not shown) [Compound 36], the pIC50 under setting [4] is 7.70.

On to `C/C1=C\C(OC2CCCCO2)C(=O)/C=C/C=C\c2csc(n2)C(C)N2C(=O)CC(C(C)(O)C(=O)SCOC(=O)CNC(=O)OC(C)(C)C)(CC1)[S+]2[O-]` (stereo not shown) [Compound 38], for which the negative-log IC50 (pIC50) under setting [4] is 8.42.

As to `COC1(OC2/C=C(\C)CCC3(C(C)(O)C(=O)SCOC(=O)CNC(=O)OC(C)(C)C)CC(=O)N(C(C)c4nc(cs4)/C=C\C=C\C2=O)[S+]3[O-])CCOCC1` (stereo not shown) [Compound 39], the negative-log IC50 (pIC50) under setting [3] was 8.66.

`C/C1=C\C(OC2CCCCO2)C(=O)/C=C/C=C\c2csc(n2)C(C)N2C(=O)CC(C(C)(O)C(=O)SCOC(=O)CNC(=O)[C@@]34O[C@H]5COC(C)(C)O[C@H]5[C@@H]3OC(C)(C)O4)(CC1)[S+]2[O-]` (stereo partly shown) [Compound 43]: the pIC50 under setting [4] is 7.62.

In the case of `C/C1=C\C(OC2CCCCO2)C(=O)/C=C/C=C\c2csc(n2)C(C)N2C(=O)CC(C(C)(O)C(=O)SCOC(=O)CCNC(=O)[C@@]34O[C@H]5COC(C)(C)O[C@H]5[C@@H]3OC(C)(C)O4)(CC1)[S+]2[O-]` (stereo partly shown) [Compound 44], the negative-log IC50 (pIC50) under setting [4] is 8.07.

On to `COC(=O)[C@H](CCC(=O)OCSC(=O)C(C)(O)C12CC/C(C)=C/C(OC3CCCCO3)C(=O)/C=C/C=C\c3csc(n3)C(C)N(C(=O)C1)[S+]2[O-])NC(=O)[C@@]12O[C@H]3COC(C)(C)O[C@H]3[C@@H]1OC(C)(C)O2` (stereo partly shown) [Compound 49], for which, under setting [4], the pIC50 was 7.52.

For `COC1(OC2/C=C(\C)CCC3(C(C)(O)C(=O)SCOC(=O)c4cccc(OC(C)=O)c4)CC(=O)N(C(C)c4nc(cs4)/C=C\C=C\C2=O)[S+]3[O-])CCOCC1` (stereo not shown) [Compound 55], under setting [3], the negative logarithm of the IC50 (pIC50) is 7.96.

In the case of `CC(=O)Oc1ccc(CCCC(=O)OCSC(=O)C(C)(O)C23CC/C(C)=C/C(OC4CCCCO4)C(=O)/C=C/C=C\c4csc(n4)C(C)N(C(=O)C2)[S+]3[O-])cc1` (stereo not shown) [Compound 56], the negative logarithm of the IC50 (pIC50) under setting [4] is 9.28.

On to `COC(=O)Nc1cccc(C(=O)OCSC(=O)C(C)(O)C23CC/C(C)=C/C(OC4CCCCO4)C(=O)/C=C/C=C\c4csc(n4)C(C)N(C(=O)C2)[S+]3[O-])c1` (stereo not shown) [Compound 57], for which the pIC50 under setting [4] was 7.44.
